Data from ChEMBL document CHEMBL5291721, “A preclinical secondary pharmacology resource illuminates target-adverse drug reaction associations of marketed drugs” (Nat Commun, 2023).

Columns and labels:
[1] = molecular target: T1, B2 bradykinin receptor (Homo sapiens, UniProt P30411)
T1 sequence (P30411 whole entry): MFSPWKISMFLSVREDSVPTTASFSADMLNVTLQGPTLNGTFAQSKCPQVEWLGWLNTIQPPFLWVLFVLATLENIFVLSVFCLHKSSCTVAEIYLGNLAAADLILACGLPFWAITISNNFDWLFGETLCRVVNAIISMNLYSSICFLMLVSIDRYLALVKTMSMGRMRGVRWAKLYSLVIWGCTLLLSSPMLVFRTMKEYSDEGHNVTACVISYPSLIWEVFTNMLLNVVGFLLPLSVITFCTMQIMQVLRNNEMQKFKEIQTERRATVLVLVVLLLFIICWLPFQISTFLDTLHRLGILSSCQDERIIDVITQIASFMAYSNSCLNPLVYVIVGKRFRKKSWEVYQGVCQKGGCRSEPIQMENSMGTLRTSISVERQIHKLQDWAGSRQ

[2] = molecular target: T2, Amine oxidase [flavin-containing] A (Homo sapiens, UniProt P21397); assay type: functional
T2 sequence (P21397 whole entry): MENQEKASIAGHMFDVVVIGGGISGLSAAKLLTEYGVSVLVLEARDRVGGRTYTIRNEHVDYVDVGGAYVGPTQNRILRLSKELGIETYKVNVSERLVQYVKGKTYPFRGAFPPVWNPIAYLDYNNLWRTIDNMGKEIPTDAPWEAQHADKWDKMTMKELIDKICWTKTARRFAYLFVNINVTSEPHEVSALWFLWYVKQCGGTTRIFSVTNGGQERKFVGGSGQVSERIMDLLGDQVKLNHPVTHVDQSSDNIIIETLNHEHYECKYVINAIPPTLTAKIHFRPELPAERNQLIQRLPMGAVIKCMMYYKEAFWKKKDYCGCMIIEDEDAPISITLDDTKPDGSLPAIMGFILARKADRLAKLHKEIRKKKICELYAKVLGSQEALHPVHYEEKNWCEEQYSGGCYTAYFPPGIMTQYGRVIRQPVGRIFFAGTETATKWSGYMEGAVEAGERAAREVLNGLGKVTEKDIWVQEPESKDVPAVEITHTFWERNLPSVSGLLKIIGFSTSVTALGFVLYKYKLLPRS

[3] = molecular target: 3',5'-cyclic-AMP phosphodiesterase 4D (Homo sapiens, UniProt Q08499); assay type: functional
[4] = molecular target: T3, Alpha-2C adrenergic receptor (Homo sapiens, UniProt P18825); assay type: functional
T3 sequence (P18825 whole entry): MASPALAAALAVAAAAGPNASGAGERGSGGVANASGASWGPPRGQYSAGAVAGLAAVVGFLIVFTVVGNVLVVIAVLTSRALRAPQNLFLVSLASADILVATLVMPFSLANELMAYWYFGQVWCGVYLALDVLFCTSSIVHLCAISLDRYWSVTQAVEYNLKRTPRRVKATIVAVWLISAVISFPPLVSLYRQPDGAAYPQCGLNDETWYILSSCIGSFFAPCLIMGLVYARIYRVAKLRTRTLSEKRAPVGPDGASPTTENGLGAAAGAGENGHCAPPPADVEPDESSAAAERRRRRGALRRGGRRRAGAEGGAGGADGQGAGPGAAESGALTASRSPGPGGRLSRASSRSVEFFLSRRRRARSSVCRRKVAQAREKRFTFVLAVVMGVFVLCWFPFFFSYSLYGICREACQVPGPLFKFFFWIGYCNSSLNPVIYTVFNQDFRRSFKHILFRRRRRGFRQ

[5] = molecular target: Motilin receptor (Homo sapiens, UniProt O43193)
[6] = molecular target: Sodium-dependent noradrenaline transporter (Homo sapiens, UniProt P23975)
[7] = molecular target: cGMP-inhibited 3',5'-cyclic phosphodiesterase 3A (Homo sapiens, UniProt Q14432); assay type: functional
[8] = molecular target: D(3) dopamine receptor (Homo sapiens, UniProt P35462)
[9] = molecular target: T4, Equilibrative nucleoside transporter 1 (Homo sapiens, UniProt Q99808)
T4 sequence (Q99808 whole entry): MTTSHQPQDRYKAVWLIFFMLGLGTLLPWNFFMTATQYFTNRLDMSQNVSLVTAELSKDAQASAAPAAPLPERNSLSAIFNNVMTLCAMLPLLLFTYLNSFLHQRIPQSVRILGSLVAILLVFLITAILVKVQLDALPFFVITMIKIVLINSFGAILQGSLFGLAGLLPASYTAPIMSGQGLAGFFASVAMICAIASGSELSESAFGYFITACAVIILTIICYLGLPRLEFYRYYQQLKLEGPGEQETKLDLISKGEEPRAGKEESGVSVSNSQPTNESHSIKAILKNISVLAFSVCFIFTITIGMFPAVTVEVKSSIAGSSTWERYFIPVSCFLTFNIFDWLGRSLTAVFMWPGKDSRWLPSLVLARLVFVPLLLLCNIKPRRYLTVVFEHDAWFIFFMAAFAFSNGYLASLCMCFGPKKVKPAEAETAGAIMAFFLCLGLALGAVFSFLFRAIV

[10] = molecular target: T5, Cholecystokinin receptor type A (Homo sapiens, UniProt P32238)
T5 sequence (P32238 whole entry): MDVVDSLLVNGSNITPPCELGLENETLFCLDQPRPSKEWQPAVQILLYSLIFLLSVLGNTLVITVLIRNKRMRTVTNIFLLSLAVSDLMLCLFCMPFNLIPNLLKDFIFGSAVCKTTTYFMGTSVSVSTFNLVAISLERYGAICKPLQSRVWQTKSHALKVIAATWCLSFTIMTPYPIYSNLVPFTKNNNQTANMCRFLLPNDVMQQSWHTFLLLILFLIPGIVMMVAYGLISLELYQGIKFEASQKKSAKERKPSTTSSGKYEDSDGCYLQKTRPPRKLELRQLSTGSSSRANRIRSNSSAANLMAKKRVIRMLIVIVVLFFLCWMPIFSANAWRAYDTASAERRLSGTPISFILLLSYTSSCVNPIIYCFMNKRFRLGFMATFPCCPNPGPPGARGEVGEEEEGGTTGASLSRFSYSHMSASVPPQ

[11] = molecular target: T6, Adenosine receptor A1 (Homo sapiens, UniProt P30542)
T6 sequence (P30542 whole entry): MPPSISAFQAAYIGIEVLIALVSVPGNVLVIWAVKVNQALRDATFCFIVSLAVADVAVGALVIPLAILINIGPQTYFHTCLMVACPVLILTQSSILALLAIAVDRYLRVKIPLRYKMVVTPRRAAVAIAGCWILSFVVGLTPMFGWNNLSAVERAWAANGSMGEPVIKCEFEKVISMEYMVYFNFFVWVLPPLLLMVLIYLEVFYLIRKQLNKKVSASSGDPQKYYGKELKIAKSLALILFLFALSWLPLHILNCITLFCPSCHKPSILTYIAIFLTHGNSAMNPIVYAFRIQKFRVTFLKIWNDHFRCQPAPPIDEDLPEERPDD
Note: assay procedure not described here.

Chain of cGMP-inhibited 3',5'-cyclic phosphodiesterase 3A (Q14432 whole entry): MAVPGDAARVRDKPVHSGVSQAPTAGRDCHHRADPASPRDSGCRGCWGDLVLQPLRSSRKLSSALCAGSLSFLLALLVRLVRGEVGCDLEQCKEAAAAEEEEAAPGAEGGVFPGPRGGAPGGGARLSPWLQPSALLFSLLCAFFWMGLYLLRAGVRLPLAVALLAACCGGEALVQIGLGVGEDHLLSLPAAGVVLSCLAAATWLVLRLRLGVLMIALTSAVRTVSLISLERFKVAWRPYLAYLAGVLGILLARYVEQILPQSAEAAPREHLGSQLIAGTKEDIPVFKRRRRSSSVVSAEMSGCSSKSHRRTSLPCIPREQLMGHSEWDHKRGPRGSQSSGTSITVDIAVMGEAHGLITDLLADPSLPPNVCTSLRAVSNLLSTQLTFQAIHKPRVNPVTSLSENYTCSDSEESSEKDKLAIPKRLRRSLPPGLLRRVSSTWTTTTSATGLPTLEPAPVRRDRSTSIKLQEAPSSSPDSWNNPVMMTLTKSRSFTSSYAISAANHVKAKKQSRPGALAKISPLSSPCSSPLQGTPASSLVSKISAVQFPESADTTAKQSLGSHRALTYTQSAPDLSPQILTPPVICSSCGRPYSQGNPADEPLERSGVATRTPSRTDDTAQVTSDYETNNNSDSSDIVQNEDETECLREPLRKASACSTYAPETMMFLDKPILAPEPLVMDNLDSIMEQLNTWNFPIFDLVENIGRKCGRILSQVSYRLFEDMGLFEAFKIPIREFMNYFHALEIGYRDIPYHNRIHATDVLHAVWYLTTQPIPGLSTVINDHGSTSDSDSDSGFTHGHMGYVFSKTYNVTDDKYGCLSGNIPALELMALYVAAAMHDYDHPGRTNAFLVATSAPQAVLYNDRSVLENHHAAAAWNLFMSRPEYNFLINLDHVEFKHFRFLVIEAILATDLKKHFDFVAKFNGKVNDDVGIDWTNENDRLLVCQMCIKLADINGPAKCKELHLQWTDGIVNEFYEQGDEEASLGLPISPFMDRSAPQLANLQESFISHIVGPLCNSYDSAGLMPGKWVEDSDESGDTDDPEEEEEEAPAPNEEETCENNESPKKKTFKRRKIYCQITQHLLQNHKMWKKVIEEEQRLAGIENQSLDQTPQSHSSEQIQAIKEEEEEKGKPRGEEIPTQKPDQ
Chain of 3',5'-cyclic-AMP phosphodiesterase 4D (Q08499 whole entry): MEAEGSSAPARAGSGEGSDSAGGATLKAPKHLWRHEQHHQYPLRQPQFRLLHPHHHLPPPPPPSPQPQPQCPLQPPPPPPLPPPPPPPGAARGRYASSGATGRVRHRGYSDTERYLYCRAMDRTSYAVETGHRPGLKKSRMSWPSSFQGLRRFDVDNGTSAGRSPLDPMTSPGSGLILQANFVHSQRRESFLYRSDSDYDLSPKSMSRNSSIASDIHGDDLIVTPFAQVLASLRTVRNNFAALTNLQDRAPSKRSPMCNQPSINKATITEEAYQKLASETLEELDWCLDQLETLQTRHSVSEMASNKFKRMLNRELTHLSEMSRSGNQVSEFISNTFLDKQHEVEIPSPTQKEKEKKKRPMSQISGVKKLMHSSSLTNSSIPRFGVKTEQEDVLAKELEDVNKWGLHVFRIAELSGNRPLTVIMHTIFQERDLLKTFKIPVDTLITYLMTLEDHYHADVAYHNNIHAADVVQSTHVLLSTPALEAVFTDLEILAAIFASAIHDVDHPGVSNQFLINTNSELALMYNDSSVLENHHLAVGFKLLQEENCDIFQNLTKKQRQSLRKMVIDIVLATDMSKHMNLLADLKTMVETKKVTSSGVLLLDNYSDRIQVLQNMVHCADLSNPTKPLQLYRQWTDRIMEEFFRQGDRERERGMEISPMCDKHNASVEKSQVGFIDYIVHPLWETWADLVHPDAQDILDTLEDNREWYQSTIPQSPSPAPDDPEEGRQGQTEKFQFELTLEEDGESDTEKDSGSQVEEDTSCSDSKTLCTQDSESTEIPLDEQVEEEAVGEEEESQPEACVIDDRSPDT
Chain of Motilin receptor (O43193 whole entry): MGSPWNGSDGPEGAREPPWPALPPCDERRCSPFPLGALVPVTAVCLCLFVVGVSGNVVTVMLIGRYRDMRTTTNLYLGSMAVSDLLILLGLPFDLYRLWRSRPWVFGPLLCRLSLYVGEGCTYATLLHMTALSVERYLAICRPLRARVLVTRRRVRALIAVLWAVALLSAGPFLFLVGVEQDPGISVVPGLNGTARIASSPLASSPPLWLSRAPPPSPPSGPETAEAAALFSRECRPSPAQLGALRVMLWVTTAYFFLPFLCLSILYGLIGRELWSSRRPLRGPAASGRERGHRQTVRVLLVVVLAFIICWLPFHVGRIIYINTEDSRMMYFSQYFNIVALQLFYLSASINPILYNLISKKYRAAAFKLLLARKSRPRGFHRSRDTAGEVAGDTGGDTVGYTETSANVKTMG
Chain of Sodium-dependent noradrenaline transporter (P23975 whole entry): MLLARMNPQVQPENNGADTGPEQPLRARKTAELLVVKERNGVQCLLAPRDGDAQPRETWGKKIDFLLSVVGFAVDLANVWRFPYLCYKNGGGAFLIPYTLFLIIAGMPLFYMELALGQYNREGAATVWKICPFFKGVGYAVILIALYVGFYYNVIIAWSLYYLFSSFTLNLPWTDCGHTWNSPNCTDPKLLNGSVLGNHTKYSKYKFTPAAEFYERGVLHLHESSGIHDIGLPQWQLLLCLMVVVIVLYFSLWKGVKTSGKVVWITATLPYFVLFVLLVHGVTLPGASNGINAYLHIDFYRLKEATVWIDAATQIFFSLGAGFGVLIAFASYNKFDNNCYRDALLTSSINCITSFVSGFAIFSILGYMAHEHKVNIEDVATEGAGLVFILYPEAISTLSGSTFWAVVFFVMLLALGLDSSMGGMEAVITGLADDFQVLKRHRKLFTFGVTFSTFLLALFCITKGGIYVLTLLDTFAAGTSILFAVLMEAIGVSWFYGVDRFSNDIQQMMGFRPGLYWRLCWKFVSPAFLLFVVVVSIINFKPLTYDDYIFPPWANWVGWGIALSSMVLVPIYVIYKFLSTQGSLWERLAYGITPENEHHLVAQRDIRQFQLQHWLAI
Chain of D(3) dopamine receptor (P35462 whole entry): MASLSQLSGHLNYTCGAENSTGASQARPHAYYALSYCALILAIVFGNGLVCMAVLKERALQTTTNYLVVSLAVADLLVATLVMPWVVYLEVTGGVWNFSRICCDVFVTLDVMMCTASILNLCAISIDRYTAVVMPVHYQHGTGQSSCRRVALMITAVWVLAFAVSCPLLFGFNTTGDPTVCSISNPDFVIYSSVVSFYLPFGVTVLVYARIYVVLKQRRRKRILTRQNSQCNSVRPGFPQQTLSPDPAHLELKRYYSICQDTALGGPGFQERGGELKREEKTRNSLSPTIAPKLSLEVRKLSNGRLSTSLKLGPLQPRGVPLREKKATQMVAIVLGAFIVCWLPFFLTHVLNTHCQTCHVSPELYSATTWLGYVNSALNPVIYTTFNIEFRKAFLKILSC

Row | Compound | AC50 [1] | AC50 [2] | AC50 [3] | AC50 [4] | AC50 [5] | AC50 [6] | AC50 [7] | AC50 [8] | AC50 [9] | AC50 [10] | AC50 [11]
1 | CCCCC(=O)O[C@]1(C(=O)CO)[C@@H](C)C[C@H]2[C@@H]3CCC4=CC(=O)C=C[C@]4(C)[C@@]3(F)[C@@H](O)C[C@@]21C [BETAMETHASONE VALERATE] | > 30 µM | > 10 µM | > 30 µM | > 10 µM | > 10 µM | > 30 µM | > 30 µM | > 30 µM | > 30 µM | > 30 µM | > 30 µM
2 | CC(N)C(O)c1ccccc1 (centres undefined) [PHENYLPROPANOLAMINE] | > 30 µM | > 10 µM | > 30 µM | 7.3 µM | > 10 µM | > 30 µM | > 30 µM | > 10 µM | > 30 µM | > 30 µM | > 30 µM
3 | CC1(C)S[C@@H]2[C@H](NC(=O)[C@H](N)c3ccccc3)C(=O)N2[C@H]1C(=O)OCOC(=O)[C@@H]1N2C(=O)C[C@H]2S(=O)(=O)C1(C)C [SULTAMICILLIN] | > 30 µM | > 30 µM | > 30 µM | > 30 µM | > 30 µM | > 30 µM | > 30 µM | > 30 µM | > 30 µM | > 30 µM | > 30 µM
4 | CCOC(=O)C1=C(C)NC(C)=C(C(=O)OC)C1c1cccc([N+](=O)[O-])c1 (centres undefined) [NITRENDIPINE] | > 30 µM | > 10 µM | > 30 µM | > 10 µM | > 10 µM | > 30 µM | > 30 µM | > 30 µM | 15.9 µM | > 30 µM | > 30 µM
